Test results: ChEMBL document CHEMBL3751764, “Synthesis and in vitro antiproliferative activity of novel pyrazolo[3,4-d]pyrimidine derivatives” (Medchemcomm, 2015)

Key:
SK-MEL-5 = experiment: Cytotoxicity against human SK-MEL-5 cells assessed as cell growth at 10 uM after 72 hrs by SRB assay relative to control; type: functional; conditions: SK-MEL-5, 72 h, read-out: Activity
786-0 = experiment: Cytotoxicity against human 786-0 cells assessed as cell growth at 10 uM after 72 hrs by SRB assay relative to control; type: functional; conditions: 786-0, 72 h, read-out: Activity
CCRF-CEM = experiment: Cytotoxicity against human CCRF-CEM cells assessed as cell growth at 10 uM after 72 hrs by SRB assay relative to control; type: functional; conditions: read-out: Activity
T47D = experiment: Cytotoxicity against human T47D cells assessed as cell growth at 10 uM after 72 hrs by SRB assay relative to control; type: functional; conditions: read-out: Activity
[1] = Cytotoxicity against human OVCAR8 cells assessed as cell growth at 10 uM after 72 hrs by SRB assay relative to control; type: functional; conditions: OVCAR-8, 72 h, read-out: Activity
A549 = experiment: Cytotoxicity against human A549 cells assessed as cell growth at 10 uM after 72 hrs by SRB assay relative to control; type: functional; conditions: A549, 72 h, read-out: Activity
SK-MEL-28 = experiment: Cytotoxicity against human SK-MEL-28 cells assessed as cell growth at 10 uM after 72 hrs by SRB assay relative to control; type: functional; conditions: SK-MEL-28, 72 h, read-out: Activity
[2] = Cytotoxicity against human DU145 cells assessed as cell growth at 10 uM after 72 hrs by SRB assay relative to control; type: functional; conditions: DU-145, 72 h, read-out: Activity
[3] = Cytotoxicity against human SF539 cells assessed as cell growth at 10 uM after 72 hrs by SRB assay relative to control; type: functional; conditions: SF-539, 72 h, read-out: Activity
[4] = Cytotoxicity against human HCT116 cells assessed as cell growth at 10 uM after 72 hrs by SRB assay relative to control; type: functional; conditions: HCT-116, 72 h, read-out: Activity
[5] = Cytotoxicity against human NCI-ADR-RES cells assessed as cell growth at 10 uM after 72 hrs by SRB assay relative to control; type: functional; conditions: read-out: Activity
NCI-H23 = experiment: Cytotoxicity against human NCI-H23 cells assessed as cell growth at 10 uM after 72 hrs by SRB assay relative to control; type: functional; conditions: NCI-H23, 72 h, read-out: Activity
[6] = Cytotoxicity against human HOP62 cells assessed as cell growth at 10 uM after 72 hrs by SRB assay relative to control; type: functional; conditions: HOP-62, 72 h, read-out: Activity
[7] = Cytotoxicity against human HCT15 cells assessed as cell growth at 10 uM after 72 hrs by SRB assay relative to control; type: functional; conditions: HCT-15, 72 h, read-out: Activity
[8] = target: Vascular endothelial growth factor receptor 2 (Homo sapiens, UniProt P35968); experiment: Inhibition of human VEGFR2 at 10 uM after 20 to 40 mins by liquid scintillation counting analysis in presence of […]; parameters: scale not given: the % may be the effect or the level left
[9] = Cytotoxicity against human SF268 cells assessed as cell growth at 10 uM after 72 hrs by SRB assay relative to control; type: functional; conditions: SF-268, 72 h, read-out: Activity
MDA-MB-468 = experiment: Cytotoxicity against human MDA-MB-468 cells assessed as cell growth at 10 uM after 72 hrs by SRB assay relative to control; type: functional; conditions: MDA-MB-468, 72 h, read-out: Activity
[10] = Cytotoxicity against human MOLT4 cells assessed as cell growth at 10 uM after 72 hrs by SRB assay relative to control; type: functional; conditions: MOLT-4, 72 h, read-out: Activity
[11] = Cytotoxicity against human IGROV1 cells assessed as cell growth at 10 uM after 72 hrs by SRB assay relative to control; type: functional; conditions: IGROV-1, 72 h, read-out: Activity
NCI-H460 = experiment: Cytotoxicity against human NCI-H460 cells assessed as cell growth at 10 uM after 72 hrs by SRB assay relative to control; type: functional; conditions: NCI-H460, 72 h, read-out: Activity
SR = experiment: Cytotoxicity against human SR cells assessed as cell growth at 10 uM after 72 hrs by SRB assay relative to control; type: functional; conditions: read-out: Activity
[12] = Cytotoxicity against human RXF393 cells assessed as cell growth at 10 uM after 72 hrs by SRB assay relative to control; type: functional; conditions: RXF 393, 72 h, read-out: Activity
MDA-MB-231 = experiment: Cytotoxicity against human MDA-MB-231 cells assessed as cell growth at 10 uM after 72 hrs by SRB assay relative to control; type: functional; conditions: MDA-MB-231, 72 h, read-out: Activity
SN12C = experiment: Cytotoxicity against human SN12C cells assessed as cell growth at 10 uM after 72 hrs by SRB assay relative to control; type: functional; conditions: read-out: Activity
[13] = Cytotoxicity against human TK10 cells assessed as cell growth at 10 uM after 72 hrs by SRB assay relative to control; type: functional; conditions: TK-10, 72 h, read-out: Activity
M14 = experiment: Cytotoxicity against human M14 cells assessed as cell growth at 10 uM after 72 hrs by SRB assay relative to control; type: functional; conditions: M14, 72 h, read-out: Activity
SK-MEL-2 = experiment: Cytotoxicity against human SK-MEL-2 cells assessed as cell growth at 10 uM after 72 hrs by SRB assay relative to control; type: functional; conditions: SK-MEL-2, 72 h, read-out: Activity
MDA-MB-435 = experiment: Cytotoxicity against human MDA-MB-435 cells assessed as cell growth at 10 uM after 72 hrs by SRB assay relative to control; type: functional; conditions: MDA-MB-435, 72 h, read-out: Activity
KM12 = experiment: Cytotoxicity against human KM12 cells assessed as cell growth at 10 uM after 72 hrs by SRB assay relative to control; type: functional; conditions: KM12, 72 h, read-out: Activity
[14] = Cytotoxicity against human HL-60(TB) cells assessed as cell growth at 10 uM after 72 hrs by SRB assay relative to control; type: functional; conditions: HL-60, 72 h, read-out: Activity
[15] = Cytotoxicity against human SKOV3 cells assessed as cell growth at 10 uM after 72 hrs by SRB assay relative to control; type: functional; conditions: SK-OV-3, 72 h, read-out: Activity
[16] = Cytotoxicity against human SNB75 cells assessed as cell growth at 10 uM after 72 hrs by SRB assay relative to control; type: functional; conditions: SNB-75, 72 h, read-out: Activity
[17] = Cytotoxicity against human Hs 578T cells assessed as cell growth at 10 uM after 72 hrs by SRB assay relative to control; type: functional; conditions: read-out: Activity
Malme-3M = experiment: Cytotoxicity against human MALME-3M cells assessed as cell growth at 10 uM after 72 hrs by SRB assay relative to control; type: functional; conditions: read-out: Activity
[18] = Cytotoxicity against human BT549 cells assessed as cell growth at 10 uM after 72 hrs by SRB assay relative to control; type: functional; conditions: BT-549, 72 h, read-out: Activity
[19] = Cytotoxicity against human Caki1 cells assessed as cell growth at 10 uM after 72 hrs by SRB assay relative to control; type: functional; conditions: CAKI-1, 72 h, read-out: Activity

Sequence of Vascular endothelial growth factor receptor 2 (P35968 whole entry): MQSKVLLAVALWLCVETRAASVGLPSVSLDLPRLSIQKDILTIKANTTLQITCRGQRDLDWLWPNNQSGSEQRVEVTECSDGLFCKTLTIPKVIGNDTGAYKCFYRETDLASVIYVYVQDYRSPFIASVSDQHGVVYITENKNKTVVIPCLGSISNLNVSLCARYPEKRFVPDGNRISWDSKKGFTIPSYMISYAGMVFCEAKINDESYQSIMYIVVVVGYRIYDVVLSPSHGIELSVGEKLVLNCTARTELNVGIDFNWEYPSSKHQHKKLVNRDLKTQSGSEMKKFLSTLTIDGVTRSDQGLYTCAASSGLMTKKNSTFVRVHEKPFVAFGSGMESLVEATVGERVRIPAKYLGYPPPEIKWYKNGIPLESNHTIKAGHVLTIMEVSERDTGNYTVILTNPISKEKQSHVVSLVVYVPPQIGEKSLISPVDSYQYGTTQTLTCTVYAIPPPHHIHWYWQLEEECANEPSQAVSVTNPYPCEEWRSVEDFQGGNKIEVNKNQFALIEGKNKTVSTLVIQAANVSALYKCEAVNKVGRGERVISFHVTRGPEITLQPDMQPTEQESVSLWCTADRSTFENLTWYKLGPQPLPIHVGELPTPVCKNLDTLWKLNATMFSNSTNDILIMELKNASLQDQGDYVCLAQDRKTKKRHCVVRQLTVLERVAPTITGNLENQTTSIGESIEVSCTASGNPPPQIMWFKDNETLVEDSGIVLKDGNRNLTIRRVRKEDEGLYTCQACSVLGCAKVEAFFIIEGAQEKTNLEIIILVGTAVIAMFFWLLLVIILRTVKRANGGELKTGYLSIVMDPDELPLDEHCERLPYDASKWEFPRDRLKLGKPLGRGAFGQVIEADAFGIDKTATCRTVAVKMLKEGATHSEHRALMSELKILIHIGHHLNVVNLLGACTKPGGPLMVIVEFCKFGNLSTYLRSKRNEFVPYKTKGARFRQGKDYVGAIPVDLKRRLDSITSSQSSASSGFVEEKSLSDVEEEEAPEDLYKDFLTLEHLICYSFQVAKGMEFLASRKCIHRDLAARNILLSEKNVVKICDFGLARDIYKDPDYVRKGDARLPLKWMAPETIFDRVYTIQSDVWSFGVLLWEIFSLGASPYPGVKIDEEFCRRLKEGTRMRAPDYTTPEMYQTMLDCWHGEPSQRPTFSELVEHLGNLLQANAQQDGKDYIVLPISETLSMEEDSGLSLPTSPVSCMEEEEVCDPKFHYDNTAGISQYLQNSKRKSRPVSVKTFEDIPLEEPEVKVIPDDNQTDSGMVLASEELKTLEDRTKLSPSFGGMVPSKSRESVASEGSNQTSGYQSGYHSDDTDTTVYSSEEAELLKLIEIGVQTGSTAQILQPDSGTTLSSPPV

Structure (SMILES): O=C(NC1CCCCC1)c1ccc(Nc2ncnc3c2cnn3-c2ccccc2)cc1
- growth at 10 µM (SK-MEL-5): 75.4%
- growth at 10 µM (786-0): 72.1%
- growth at 10 µM (CCRF-CEM): 64.9%
- growth at 10 µM (T47D): 76.8%
- growth at 10 µM [1]: 21.6%
- growth at 10 µM (A549): 16.6%
- growth at 10 µM (SK-MEL-28): 62.2%
- growth at 10 µM [2]: 54.6%
- growth at 10 µM [3]: 43.7%
- growth at 10 µM [4]: 37.6%
- growth at 10 µM [5]: 74.2%
- growth at 10 µM (NCI-H23): 72%
- growth at 10 µM [6]: -66.5%
- growth at 10 µM [7]: 66.6%
- Activity [8]: 7%
- growth at 10 µM [9]: 36.9%
- growth at 10 µM (MDA-MB-468): 76.1%
- growth at 10 µM [10]: 89.5%
- growth at 10 µM [11]: 71.1%
- growth at 10 µM (NCI-H460): 42.2%
- growth at 10 µM (SR): 67.5%
- growth at 10 µM [12]: 62.2%
- growth at 10 µM (MDA-MB-231): 8.76%
- growth at 10 µM (SN12C): 19%
- growth at 10 µM [13]: 51%
- growth at 10 µM (M14): 69.1%
- growth at 10 µM (SK-MEL-2): 79.1%
- growth at 10 µM (MDA-MB-435): 81.2%
- growth at 10 µM (KM12): 88.5%
- growth at 10 µM [14]: 106%
- growth at 10 µM [15]: 54%
- growth at 10 µM [16]: -20.4%
- growth at 10 µM [17]: 0.22%
- growth at 10 µM (Malme-3M): 2.93%
- growth at 10 µM [18]: 59.8%
- growth at 10 µM [19]: 62.3%
